These results are taken from ChEMBL document CHEMBL1201862, “PubChem BioAssay data set” (2004).

What all share (assay): inhibition of tumour cell growth, NCI panel, 48 h
Assay [1] has as its system SF-295.
The subject of assay [2] is TK-10.
For assay [3], the system named is NCI-H226.
Assay [4] relates to HCC 2998.
In assay [5] the test system is Malme-3M.
The test system of assay [6] is HT-29.
For assay [7], the system named is OVCAR-8.
The subject of assay [8] is KM12.
The test system of assay [9] is HOP-92.
Assay [10] has as its system RXF 393.
Assay [11] relates to CAKI-1.
In assay [12] the test system is MCF7.
In assay [13] the test system is SK-MEL-5.
In assay [14] the test system is A549.
The test system of assay [15] is NCI/ADR-RES.
For assay [16], the system named is OVCAR-3.
The test system of assay [17] is BT-549.
The test system of assay [18] is HL-60.

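Growth conditions: 96-well plates. Treatment: test compound, 48 hours, 5 concentrations. Analysis: linear interpolation between bracketing concentrations; unreached endpoints set to highest concentration. GI50 marks 50% less growth.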 Calls of active or inactive are those of the source. Cut-off read from the data, not from the text of the source: active = GI50 up to about 1.1 µM and inactive = higher.

In the case of `Fc1ccccc1-c1cc(S)c2cc3c(cc2n1)OCO3`, the GI50 was 7.91 µM (inactive) in assay [1]; > 48.3 µM (inactive) in [2]; 19.2 µM (inactive) in [3]; 5.53 µM (inactive) in assay [4]; 11.7 µM (inactive) in assay [5]; 17.2 µM (inactive) in assay [6]. Besides, the GI50 is 17.8 µM (inactive) in [7]; 4.91 µM (inactive) in assay [8]; > 45.7 µM (inactive) in assay [9]; > 54.2 µM (inactive) in assay [10]; 9.93 µM (inactive) in [11]; 4.88 µM (inactive) in assay [12]. The GI50 was 3.63 µM (inactive) in assay [13]; 5.52 µM (inactive) in assay [14]; 4.26 µM (inactive) in assay [15]; 10.9 µM (inactive) in assay [16]; 61 µM (inactive) in assay [17].

For `O=C(CSc1nnc(SCC(=O)NN=C2CCCCC2)s1)NN=C1CCCCC1`, the GI50 in assay [1], in assay [2], in [3], in assay [4], in [5] and in assay [6] was > 100 µM (inactive) throughout. The GI50 in [7], in assay [8], in [9], in assay [10], in assay [11] and in assay [12] was > 100 µM (inactive) in each case. Also, the GI50 in [13], in [14], in assay [15], in assay [16] and in assay [17] was > 100 µM (inactive) each time.

With `Nc1ccc2c(c1)C(=O)c1c(F)cccc1-2`, the GI50 in assay [1] was 46 µM (inactive); in assay [2], 47.2 µM (inactive); in assay [3], 27.7 µM (inactive); in [4], 40 µM (inactive); in [5], 38.4 µM (inactive); in assay [6], 27.7 µM (inactive). Further, the GI50 in [7] was 43.1 µM (inactive); in assay [8], 40.5 µM (inactive); in assay [9] it was 15.5 µM (inactive); in assay [10] it was 42.2 µM (inactive); in assay [11], 23.6 µM (inactive); in assay [12], 10.1 µM (inactive). The GI50 is 25.5 µM (inactive) in assay [13]; 96.6 µM (inactive) in assay [14]; 35.6 µM (inactive) in [15]; 25.9 µM (inactive) in assay [16]; 39.3 µM (inactive) in [17].

For the molecule `Cn1c(=O)c2c(nc3n(CC(O)CCl)c(=O)ccn23)n(C)c1=O` (configuration not stated), the GI50 was 47.5 µM (inactive) in assay [1]; 89.3 µM (inactive) in assay [2]; 15.5 µM (inactive) in assay [18]; 22.6 µM (inactive) in [3]; 58.7 µM (inactive) in [4]; 30.8 µM (inactive) in assay [6]. Moreover, the GI50 was 18.7 µM (inactive) in [7]; 19.9 µM (inactive) in [8]; 45.9 µM (inactive) in assay [9]; > 100 µM (inactive) in [10]; 17 µM (inactive) in assay [11]; 40.4 µM (inactive) in [12]. In addition, the GI50 in [13] is 62.5 µM (inactive); in [14], 64 µM (inactive); in [15], 19.3 µM (inactive); in assay [16], 77.1 µM (inactive); in assay [17], > 100 µM (inactive).

As for `COC(=O)c1cc(O)c(O)c(O)c1-c1c(O)c(O)c(O)c(SC[C@H](NC(=O)OCc2ccccc2)C(=O)OCc2ccccc2)c1C(=O)OC`, the GI50 in [1] is 35.3 µM (inactive); in assay [2] it was 67.9 µM (inactive); in assay [18], 15.1 µM (inactive); in assay [3], 21.2 µM (inactive); in assay [4], 24.1 µM (inactive); in assay [5] it was 78.5 µM (inactive). Further, the GI50 in [6] was 28.3 µM (inactive); in assay [7], 21.2 µM (inactive); in assay [8] it was 31.9 µM (inactive); in assay [9], 26.2 µM (inactive); in assay [10], 20.2 µM (inactive); in [11], 18.7 µM (inactive). Also, the GI50 is 18 µM (inactive) in assay [12]; 17.9 µM (inactive) in assay [14]; 35 µM (inactive) in [15]; 34 µM (inactive) in assay [16]; 34.7 µM (inactive) in assay [17].

As for `C=C(C)C1(Sc2ccc(OC)cc2)CC1`, the GI50 was 26.9 µM (inactive) in assay [1]; 48.1 µM (inactive) in assay [2]; 17 µM (inactive) in [18]; 4.81 µM (inactive) in assay [3]; 14.5 µM (inactive) in assay [4]; 17.8 µM (inactive) in assay [5]. For the same molecule, the GI50 was 22.3 µM (inactive) in assay [6]; 33 µM (inactive) in assay [7]; 25 µM (inactive) in assay [8]; 17.6 µM (inactive) in [10]; 30.5 µM (inactive) in [11]; 32.3 µM (inactive) in assay [12]. The GI50 is 14.6 µM (inactive) in assay [13]; 30.8 µM (inactive) in assay [14]; 37.4 µM (inactive) in [15]; 14.5 µM (inactive) in assay [16]; 17.1 µM (inactive) in [17].

In the case of `C=C(C)[C@@]1(O)CCC[C@H]1NC(=O)OC(C)(C)C`, the GI50 in assay [1], in assay [2], in assay [3], in assay [4], in assay [5] and in assay [6] was > 100 µM (inactive) throughout. Further, the GI50 in [7], in assay [8], in assay [9], in [10], in [11] and in assay [12] was > 100 µM (inactive) each time. Besides, the GI50 in assay [13], in [14], in [15], in assay [16] and in assay [17] was > 100 µM (inactive) in each case.

For `O=C1NC(NNc2ccccc2)=N/C1=C\c1ccco1`, the GI50 in assay [1] was 39.5 µM (inactive); in [2] it was 18.3 µM (inactive); in assay [18] it was 20.3 µM (inactive); in assay [4], 17.6 µM (inactive); in assay [5] it was 28.1 µM (inactive); in assay [6], 18.6 µM (inactive). In addition, the GI50 was 17.6 µM (inactive) in assay [7]; 11.2 µM (inactive) in assay [8]; 14.8 µM (inactive) in assay [9]; 13.4 µM (inactive) in [10]; 14.3 µM (inactive) in assay [11]; 15.5 µM (inactive) in assay [12]. Also, the GI50 in assay [13] is 25.5 µM (inactive); in assay [14] it was 46.5 µM (inactive); in [15], 26.2 µM (inactive); in [16], 17.5 µM (inactive); in assay [17] it was 21.2 µM (inactive).

With `COc1ccc(C2(O)c3ccccc3C(=O)N(C)C2(O)c2ccc(OC)cc2)cc1` (configuration not stated), the GI50 in assay [1] was 32.9 µM (inactive); in assay [2] it was 59.4 µM (inactive); in assay [18], 32.6 µM (inactive); in assay [4] it was 49.3 µM (inactive); in [5], 45.9 µM (inactive); in [6], 28.5 µM (inactive). Also, the GI50 in [7] is 81.7 µM (inactive); in [8] it was 16.4 µM (inactive); in assay [9], 36.3 µM (inactive); in assay [10], > 100 µM (inactive); in assay [11], 57.1 µM (inactive); in assay [12] it was 54.5 µM (inactive). The GI50 in assay [13] is 99.1 µM (inactive); in assay [14], 57.8 µM (inactive); in [15], 24 µM (inactive); in assay [16], 57 µM (inactive); in assay [17] it was 34.3 µM (inactive).

`O=C([C@H](O)[C@@H](O)c1cccc(Cl)c1)C12CC3CC(CC(C3)C1)C2`: the GI50 in [1] is 3.15 µM (inactive); in [2], 1.98 µM (inactive); in [18] it was 0.483 µM (active); in assay [3] it was 4.32 µM (inactive); in assay [4], 2.11 µM (inactive); in [5] it was 4.81 µM (inactive). In addition, the GI50 in [6] is 2.37 µM (inactive); in assay [7] it was 1.88 µM (inactive); in assay [8] it was 2.26 µM (inactive); in assay [10] it was 2.37 µM (inactive); in assay [11], 2.08 µM (inactive); in assay [12], 0.667 µM (active). Further, the GI50 in assay [13] is 4.13 µM (inactive); in assay [14] it was 2.19 µM (inactive); in [15] it was 2.27 µM (inactive); in assay [16], 1.94 µM (inactive); in assay [17] it was 1.87 µM (inactive).

Regarding `C/C=C/C/C=C/CCC(=O)C1OC1C(N)=O` (configuration not stated), the GI50 in assay [1] is 15 µM (inactive); in assay [2], 13.2 µM (inactive); in assay [4], 17.3 µM (inactive); in assay [5] it was 17.8 µM (inactive); in assay [6], 17.3 µM (inactive); in assay [7], 13.3 µM (inactive). Also, the GI50 in assay [8] was 15.3 µM (inactive); in [9], 16 µM (inactive); in assay [10] it was 9.4 µM (inactive); in assay [11], 16.3 µM (inactive); in assay [12], 14.5 µM (inactive); in assay [13], 15 µM (inactive). The GI50 is 20.7 µM (inactive) in [14], 20 µM (inactive) in assay [15], 18.7 µM (inactive) in assay [16] and 12.2 µM (inactive) in [17].

For the molecule `O=c1c(Cl)cc2nc3ccccc3sc-2c1Cl`, the GI50 in [1] was 16.9 µM (inactive); in [2], 17.9 µM (inactive); in [18] it was 10.6 µM (inactive); in assay [3] it was 16.5 µM (inactive); in assay [4] it was 14.1 µM (inactive); in assay [5] it was 10 µM (inactive). The GI50 is 23.2 µM (inactive) in assay [6]; 17.6 µM (inactive) in [8]; 18.5 µM (inactive) in assay [10]; 22.1 µM (inactive) in assay [11]; 14.4 µM (inactive) in assay [12]; 2.92 µM (inactive) in assay [13]. Further, the GI50 was 18.7 µM (inactive) in assay [14], 21.5 µM (inactive) in [15], 1.98 µM (inactive) in [16] and 11.7 µM (inactive) in [17].
